Results reported in the NIST ThermoML archive (doi:10.1016/j.fluid.2011.12.029).
± gives the expanded uncertainty stated by the source.

Conditions: Liquid, Vibrating tube method

CCCC[n+]1ccccc1.O=S(=O)([O-])C(F)(F)F [1-butylpyridinium trifluoromethanesulfonate]
mass density [kg/m3]
Conditions	303.15 K	308.15 K	313.15 K	318.15 K	323.15 K	328.15 K	333.15 K
100 kPa	1311.77 ± 0.49	1307.87 ± 0.49	1303.91 ± 0.49	1299.91 ± 0.48	1296.31 ± 0.48	1292.18 ± 0.48	1288.27 ± 0.47
5000 kPa	1314.63 ± 0.56	1310.78 ± 0.55	1306.89 ± 0.55	1303.07 ± 0.54	1298.89 ± 0.54	1295.18 ± 0.54	1291.41 ± 0.53
10000 kPa	1317.44 ± 0.62	1313.65 ± 0.62	1309.74 ± 0.61	1305.66 ± 0.61	1302.15 ± 0.6	1298.11 ± 0.6	1294.46 ± 0.59
15000 kPa	1320.2 ± 0.69	1316.6 ± 0.68	1312.65 ± 0.68	1308.66 ± 0.67	1304.98 ± 0.66	1301.2 ± 0.66	1297.41 ± 0.65
20000 kPa	1322.82 ± 0.75	1319.24 ± 0.75	1315.17 ± 0.74	1311.4 ± 0.73	1307.88 ± 0.73	1304.07 ± 0.72	1300.4 ± 0.72
25000 kPa	1325.53 ± 0.82	1321.85 ± 0.81	1317.99 ± 0.81	1314.14 ± 0.8	1310.7 ± 0.79	1306.75 ± 0.79	1303.31 ± 0.78
30000 kPa	1328.06 ± 0.89	1324.38 ± 0.88	1320.63 ± 0.87	1316.74 ± 0.87	1313.34 ± 0.86	1309.49 ± 0.85	1306.06 ± 0.84
35000 kPa	1330.48 ± 0.96	1326.93 ± 0.95	1323.08 ± 0.94	1319.52 ± 0.93	1315.79 ± 0.93	1312.17 ± 0.92	1308.77 ± 0.91
40000 kPa	1332.93 ± 1	1329.48 ± 1	1325.67 ± 1	1322.07 ± 1	1318.44 ± 0.99	1314.65 ± 0.98	1311.33 ± 0.98
45000 kPa	1335.28 ± 1.1	1331.89 ± 1.1	1328.04 ± 1.1	1324.29 ± 1.1	1321.03 ± 1.1	1317.18 ± 1.1	1313.93 ± 1
50000 kPa	1337.67 ± 1.2	1333.97 ± 1.2	1330.42 ± 1.1	1326.61 ± 1.1	1323.34 ± 1.1	1319.65 ± 1.1	1316.36 ± 1.1
55000 kPa	1339.98 ± 1.2	1336.34 ± 1.2	1332.73 ± 1.2	1328.88 ± 1.2	1325.68 ± 1.2	1322 ± 1.2	1318.77 ± 1.2
60000 kPa	1342.03 ± 1.3	1338.51 ± 1.3	1334.95 ± 1.3	1331.4 ± 1.3	1328.01 ± 1.3	1324.3 ± 1.3	1320.81 ± 1.2
65000 kPa	1344.13 ± 1.4	1340.54 ± 1.4	1337.08 ± 1.4	1333.55 ± 1.4	1330.03 ± 1.3	1326.69 ± 1.3	1323.38 ± 1.3

CCCCCCCC[n+]1cccc(C)c1.F[B-](F)(F)F [N-octyl-3-methylpyridinium tetrafluoroborate]
Conditions	mass density [kg/m3]
283.15 K, 100 kPa	1106.25 ± 1.1
283.15 K, 5000 kPa	1108.56 ± 1.1
283.15 K, 10000 kPa	1110.95 ± 1.1
283.15 K, 15000 kPa	1113.26 ± 1.1
283.15 K, 20000 kPa	1115.53 ± 1.2
283.15 K, 25000 kPa	1117.71 ± 1.2
283.15 K, 30000 kPa	1119.8 ± 1.2
283.15 K, 35000 kPa	1121.93 ± 1.3
283.15 K, 40000 kPa	1123.9 ± 1.3
283.15 K, 45000 kPa	1125.95 ± 1.3
283.15 K, 50000 kPa	1127.8 ± 1.4
283.15 K, 55000 kPa	1129.77 ± 1.4
283.15 K, 60000 kPa	1131.58 ± 1.4
283.15 K, 65000 kPa	1133.37 ± 1.5
288.15 K, 100 kPa	1102.88 ± 1.1
288.15 K, 5000 kPa	1105.22 ± 1.1
288.15 K, 10000 kPa	1107.61 ± 1.1
288.15 K, 15000 kPa	1109.98 ± 1.1
288.15 K, 20000 kPa	1112.32 ± 1.2
288.15 K, 25000 kPa	1114.52 ± 1.2
288.15 K, 30000 kPa	1116.64 ± 1.2
288.15 K, 35000 kPa	1118.71 ± 1.2
288.15 K, 40000 kPa	1120.76 ± 1.3
288.15 K, 45000 kPa	1122.74 ± 1.3
288.15 K, 50000 kPa	1124.72 ± 1.3
288.15 K, 55000 kPa	1126.63 ± 1.4
288.15 K, 60000 kPa	1128.51 ± 1.4
288.15 K, 65000 kPa	1130.3 ± 1.4
293.15 K, 100 kPa	1099.53 ± 1.1
293.15 K, 5000 kPa	1102.06 ± 1.1
293.15 K, 10000 kPa	1104.51 ± 1.1
293.15 K, 15000 kPa	1106.86 ± 1.1
293.15 K, 20000 kPa	1109.18 ± 1.1
293.15 K, 25000 kPa	1111.4 ± 1.2
293.15 K, 30000 kPa	1113.56 ± 1.2
293.15 K, 35000 kPa	1115.81 ± 1.2
293.15 K, 40000 kPa	1117.82 ± 1.3
293.15 K, 45000 kPa	1119.87 ± 1.3
293.15 K, 50000 kPa	1121.88 ± 1.3
293.15 K, 55000 kPa	1123.82 ± 1.4
293.15 K, 60000 kPa	1125.67 ± 1.4
293.15 K, 65000 kPa	1127.47 ± 1.4
298.15 K, 100 kPa	1096.08 ± 1
298.15 K, 5000 kPa	1098.54 ± 1.1
298.15 K, 10000 kPa	1101.04 ± 1.1
298.15 K, 15000 kPa	1103.47 ± 1.1
298.15 K, 20000 kPa	1105.84 ± 1.1
298.15 K, 25000 kPa	1108.07 ± 1.2
298.15 K, 30000 kPa	1110.33 ± 1.2
298.15 K, 35000 kPa	1112.49 ± 1.2
298.15 K, 40000 kPa	1114.56 ± 1.3
298.15 K, 45000 kPa	1116.65 ± 1.3
298.15 K, 50000 kPa	1118.65 ± 1.3
298.15 K, 55000 kPa	1120.63 ± 1.4
298.15 K, 60000 kPa	1122.5 ± 1.4
298.15 K, 65000 kPa	1124.52 ± 1.4
303.15 K, 100 kPa	1092.83 ± 1
303.15 K, 5000 kPa	1095.28 ± 1.1
303.15 K, 10000 kPa	1097.84 ± 1.1
303.15 K, 15000 kPa	1100.3 ± 1.1
303.15 K, 20000 kPa	1102.65 ± 1.1
303.15 K, 25000 kPa	1104.99 ± 1.2
303.15 K, 30000 kPa	1107.32 ± 1.2
303.15 K, 35000 kPa	1109.47 ± 1.2
303.15 K, 40000 kPa	1111.6 ± 1.2
303.15 K, 45000 kPa	1113.68 ± 1.3
303.15 K, 50000 kPa	1115.8 ± 1.3
303.15 K, 55000 kPa	1117.71 ± 1.3
303.15 K, 60000 kPa	1119.7 ± 1.4
303.15 K, 65000 kPa	1121.56 ± 1.4
308.15 K, 100 kPa	1089.26 ± 1
308.15 K, 5000 kPa	1091.74 ± 1.1
308.15 K, 10000 kPa	1094.35 ± 1.1
308.15 K, 15000 kPa	1096.91 ± 1.1
308.15 K, 20000 kPa	1099.29 ± 1.1
308.15 K, 25000 kPa	1101.65 ± 1.1
308.15 K, 30000 kPa	1103.95 ± 1.2
308.15 K, 35000 kPa	1106.18 ± 1.2
308.15 K, 40000 kPa	1108.37 ± 1.2
308.15 K, 45000 kPa	1110.56 ± 1.3
308.15 K, 50000 kPa	1112.6 ± 1.3
308.15 K, 55000 kPa	1114.63 ± 1.3
308.15 K, 60000 kPa	1116.66 ± 1.4
308.15 K, 65000 kPa	1118.6 ± 1.4
313.15 K, 100 kPa	1085.88 ± 1
313.15 K, 5000 kPa	1088.47 ± 1
313.15 K, 10000 kPa	1091.09 ± 1.1
313.15 K, 15000 kPa	1093.69 ± 1.1
313.15 K, 20000 kPa	1096.09 ± 1.1
313.15 K, 25000 kPa	1098.54 ± 1.1
313.15 K, 30000 kPa	1100.84 ± 1.2
313.15 K, 35000 kPa	1103.14 ± 1.2
313.15 K, 40000 kPa	1105.37 ± 1.2
313.15 K, 45000 kPa	1107.51 ± 1.2
313.15 K, 50000 kPa	1109.66 ± 1.3
313.15 K, 55000 kPa	1111.71 ± 1.3
313.15 K, 60000 kPa	1113.7 ± 1.3
313.15 K, 65000 kPa	1115.65 ± 1.4
318.15 K, 100 kPa	1082.49 ± 1
318.15 K, 5000 kPa	1085.16 ± 1
318.15 K, 10000 kPa	1087.86 ± 1.1
318.15 K, 15000 kPa	1090.4 ± 1.1
318.15 K, 20000 kPa	1092.87 ± 1.1
318.15 K, 25000 kPa	1095.34 ± 1.1
318.15 K, 30000 kPa	1097.71 ± 1.2
318.15 K, 35000 kPa	1100 ± 1.2
318.15 K, 40000 kPa	1102.23 ± 1.2
318.15 K, 45000 kPa	1104.4 ± 1.2
318.15 K, 50000 kPa	1106.52 ± 1.3
318.15 K, 55000 kPa	1108.63 ± 1.3
318.15 K, 60000 kPa	1110.64 ± 1.3
318.15 K, 65000 kPa	1112.69 ± 1.4
323.15 K, 100 kPa	1079.26 ± 1
323.15 K, 5000 kPa	1082.03 ± 1
323.15 K, 10000 kPa	1084.69 ± 1.1
323.15 K, 15000 kPa	1087.27 ± 1.1
323.15 K, 20000 kPa	1089.69 ± 1.1
323.15 K, 25000 kPa	1092.26 ± 1.1
323.15 K, 30000 kPa	1094.65 ± 1.1
323.15 K, 35000 kPa	1096.93 ± 1.2
323.15 K, 40000 kPa	1099.23 ± 1.2
323.15 K, 45000 kPa	1101.43 ± 1.2
323.15 K, 50000 kPa	1103.63 ± 1.3
323.15 K, 55000 kPa	1105.69 ± 1.3
323.15 K, 60000 kPa	1107.78 ± 1.3
323.15 K, 65000 kPa	1109.77 ± 1.4
328.15 K, 100 kPa	1075.89 ± 0.99
328.15 K, 5000 kPa	1078.67 ± 1
328.15 K, 10000 kPa	1081.32 ± 1
328.15 K, 15000 kPa	1083.91 ± 1.1
328.15 K, 20000 kPa	1086.53 ± 1.1
328.15 K, 25000 kPa	1089.05 ± 1.1
328.15 K, 30000 kPa	1091.41 ± 1.1
328.15 K, 35000 kPa	1093.82 ± 1.2
328.15 K, 40000 kPa	1096.15 ± 1.2
328.15 K, 45000 kPa	1098.38 ± 1.2
328.15 K, 50000 kPa	1100.54 ± 1.2
328.15 K, 55000 kPa	1102.61 ± 1.3
328.15 K, 60000 kPa	1104.75 ± 1.3
328.15 K, 65000 kPa	1106.82 ± 1.3
333.15 K, 100 kPa	1072.64 ± 0.99
333.15 K, 5000 kPa	1075.39 ± 1
333.15 K, 10000 kPa	1078.24 ± 1
333.15 K, 15000 kPa	1080.9 ± 1.1
333.15 K, 20000 kPa	1083.46 ± 1.1
333.15 K, 25000 kPa	1086.03 ± 1.1
333.15 K, 30000 kPa	1088.48 ± 1.1
333.15 K, 35000 kPa	1090.88 ± 1.1
333.15 K, 40000 kPa	1093.31 ± 1.2
333.15 K, 45000 kPa	1095.48 ± 1.2
333.15 K, 50000 kPa	1097.71 ± 1.2
333.15 K, 55000 kPa	1099.8 ± 1.3
333.15 K, 60000 kPa	1101.97 ± 1.3
333.15 K, 65000 kPa	1104.05 ± 1.3
